Article PMC5375023 (Neurochemistry international, 2017)
Where two headings read alike, the source gives them in different places.

Columns and labels:
[1] = tested on: BDNF mRNA in CCF-STTG1 cells; assay: qPCR of BDNF steady-state mRNA; type: cell-based, human; settings: 3 hr
human S1R [2] = target: T1, human S1R (Homo sapiens, UniProt Q99720); assay: Competition binding with [3H]-
human S2R = human S2R (Homo sapiens, UniProt Q5BJF2); assay: Competition binding with [3H]DTG at S2R in untransfected MCF-7 cells; settings: for IC50: read-out: IC50 at S2R; for IC50 / Ki: MCF-7, ± SEM; for Ki: read-out: Ki at S2R
CCF-STTG1 cells = assay: BDNF secretion by in situ ELISA, CCF-STTG1; settings: for BDNF secretion from CCF-STTG1 cells, compound alone: 72 hrs treatment
human S1R [3] = target: T1, human S1R; settings: ref Lee et al., 2008, cited from earlier work
EP2R = settings: 10 μM; ref af Forselles et al., 2011; cited from earlier work
BV-2 cells = assay: BDNF secretion by in situ ELISA, BV-2; type: cell-based, murine; settings: 10 μM
U87MG cells = assay: BDNF secretion by in situ ELISA, U87MG; settings: 72 hrs treatment
ischemic stroke = settings: acute low dose 0.05 mg/kg, s.c., rats; ref Schetz et al., 2007; cited from earlier work
[4] = 15 nM, Fractional Occupancy = [ligand]/([ligand]+Ki)

human S2R, sequence (Q5BJF2 whole entry): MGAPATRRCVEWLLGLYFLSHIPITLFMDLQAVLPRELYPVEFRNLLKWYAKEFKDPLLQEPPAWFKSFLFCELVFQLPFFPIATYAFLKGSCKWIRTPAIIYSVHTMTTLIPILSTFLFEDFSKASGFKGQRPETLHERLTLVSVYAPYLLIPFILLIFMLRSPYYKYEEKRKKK
T1 sequence (Q99720 whole entry): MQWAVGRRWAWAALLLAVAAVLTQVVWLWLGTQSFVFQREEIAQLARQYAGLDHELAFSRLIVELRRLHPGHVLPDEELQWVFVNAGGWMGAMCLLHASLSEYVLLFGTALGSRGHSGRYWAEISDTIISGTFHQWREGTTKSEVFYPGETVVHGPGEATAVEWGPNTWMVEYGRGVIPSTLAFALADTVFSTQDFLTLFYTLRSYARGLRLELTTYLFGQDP

In the case of `C=C[C@@]1(C)CC(=O)[C@]2(O)[C@@]3(C)[C@@H](O)CCC(C)(C)[C@@H]3[C@H](O)[C@H](OC(C)=O)[C@@]2(C)O1` [Forskolin], the “increase in BDNF mRNA levels” value ([1]; 100 μM forskolin + 100 μM IBMX, normalized to vehicle) is reported as greater than 3 fold.

For `CN1CCN(CCc2ccc(Cl)c(Cl)c2)CC1` [BD1063], the “expected S1R occupancy” value (human S1R [2]; 2 nM) was 27%, the “calculated S1R occupancy” value (human S1R [2]; [4]) was 74% and the “Ki(S2R)/Ki(S1R) selectivity” value (human S1R [2]; S1R over S2R) was 37 fold. The IC50 (human S1R [2]; read-out: IC50 at S1R, [3H]-(+)-pentazocine, MCF-7-S1R, ± SEM) was 6.5 ± 0.87 nM, the Ki (human S1R [2]; read-out: Ki at S1R, [3H]-(+)-pentazocine, MCF-7-S1R, ± SEM) was 5.3 ± 0.71 nM and the “calculated S2R occupancy” value (human S2R; [4]) was 7%. For the same compound, the IC50 (human S2R; [3H]-DTG) was 208 ± 30 nM, the Ki (human S2R; [3H]-DTG) was 194 ± 28 nM and the “BDNF secretion from CCF-STTG1 cells, compound alone” value (“BDNF secretion from CCF-STTG1 cells” for short) (CCF-STTG1 cells) was “no effect on its own”. For the same compound, the “effect on PGE2-stimulated BDNF response mediated by EP2R” value (CCF-STTG1 cells; S1R-selective dose of BD1063) was “does not modify the PGE2 stimulated response”, the “effect on BDNF secretion produced by S1R agonists 4-PPBP and (+)-SKF10047” value (CCF-STTG1 cells; antagonist 15 nM) was “significantly reduced BDNF secretion” and the “effect on BDNF secretion produced by haloperidol metabolites I and II” value (CCF-STTG1 cells; antagonist BD1063 co-applied) was “significantly diminished BDNF secretion”.

With `CC(C)Cn1c(=O)n(C)c(=O)c2[nH]cnc21` [IBMX] the “effect on BDNF mRNA levels” value ([1]; 100 μM) was “no effect on BDNF mRNA levels”.

In the case of `CN1CCN(C2=Nc3cc(Cl)ccc3Nc3ccccc32)CC1` [clozapine], the “affinity for the S1R, in words” value (human S1R [3]) is given as “essentially no affinity”.

With `CCCCC[C@H](O)/C=C/[C@H]1[C@H](O)CC(=O)[C@@H]1C/C=C\CCCC(=O)O` [PGE2, Prostaglandin E2] the “displacement of specifically bound radioligand from S1R” value (human S1R [2]; 10 μM, [3H]-(+)-pentazocine) was “unable to displace”, the “displacement of specifically bound radioligand from S2R” value (human S2R; 10 μM, [3H]-DTG) was “unable to displace” and the “secreted BDNF, maximal stimulation” value (CCF-STTG1 cells; 10 μM, ± SEM, n = 6 experiments, baseline 75.4 ± 6.9) was 128.6 ± 12.8 pg/mL. For the same compound, the “BDNF secretion from CCF-STTG1 cells” value (CCF-STTG1 cells) was “secreted BDNF in a concentration-dependent manner”.

For `COc1ccc2cc(OCC3(C(=O)O)CN(C(=O)c4ccc(F)cc4)C3)ccc2c1` [PF-04418948], the EP2 receptor occupancy (EP2R) is listed as 99.9%, the “BDNF secretion from CCF-STTG1 cells” value (CCF-STTG1 cells) is listed as “no effect by itself” and the “effect on PGE2-stimulated BDNF secretion” value (CCF-STTG1 cells; antagonist 10 μM vs PGE2) is listed as “blocked the stimulatory effect of PGE2”.

For `O=C(O)CCC(=O)c1ccc(F)cc1` [haloperidol metabolite III, 3-(4-Fluorobenzoyl)propionic acid], the “affinity for the S1R, in words” value (human S1R [3]) is listed as “essentially no detectable affinity”.

With `c1ccc(CCCCN2CCC(c3ccccc3)CC2)cc1` [4-PPBP] the “BDNF secretion from BV-2 cells, compound alone” value (BV-2 cells) was “failed to significantly stimulate the secretion of detectable levels of BDNF”, the “BDNF signal above DMSO vehicle” value (BV-2 cells; BV-2 cells, P = 0.4) was 1.1 ± 0.06 fold and the “BDNF secretion from CCF-STTG1 cells” value (CCF-STTG1 cells) was “facilitated BDNF secretion”. The “effect on BDNF mRNA levels” value ([1]; 10 μM) was “no effect on BDNF mRNA levels”.

In the case of `CCCN(CCC)CCc1ccc(OC)c(OCCc2ccccc2)c1` [NE100], the IC50 (human S2R; [3H]-DTG) is reported as 46 ± 6.4 nM and the Ki (human S2R; [3H]-DTG) is reported as 43 ± 6 nM.

For `OC1(c2ccc(Cl)cc2)CCNCC1` [haloperidol metabolite I, 4-(4-Chlorophenyl)-4-hydroxypiperidine], the “BDNF secretion from U87MG cells, compound alone” value (shortened to “BDNF secretion from U87MG cells”) (U87MG cells) is given as “facilitated BDNF secretion”, the “BDNF secretion from CCF-STTG1 cells” value (CCF-STTG1 cells) is given as “facilitated BDNF secretion” and the Ki (human S1R [3]; read-out: affinity (Ki) for the S1R) is given as 128 nM. For the same compound, the “fold lower affinity for the S1R than haloperidol and reduced haloperidol” value (human S1R [3]) was greater than 75 fold and the “effect on BDNF mRNA levels” value ([1]; 100 μM) was “no effect on BDNF mRNA levels”.

For (+)-SKF10047, the “BDNF secretion from CCF-STTG1 cells” value (CCF-STTG1 cells) was “facilitated BDNF secretion”.

With `OC(CCCN1CCC(O)(c2ccc(Cl)cc2)CC1)c1ccc(F)cc1` (racemic) [reduced haloperidol, (±)-4-(4-Chlorophenyl)-α-(4-fluorophenyl)-4-hydroxy-1-piperidinebutanol] the “BDNF secretion from U87MG cells” value (U87MG cells) was “facilitated BDNF secretion”, the “BDNF secretion from CCF-STTG1 cells” value (CCF-STTG1 cells) was “facilitated BDNF secretion” and the “effect on BDNF mRNA levels” value ([1]; 10 μM) was “no effect on BDNF mRNA levels”.

In the case of `O=C(CCCN1CCC(O)(c2ccc(Cl)cc2)CC1)c1ccc(F)cc1` [haloperidol, Haloperidol], the “BDNF secretion from U87MG cells” value (U87MG cells) is listed as “but not haloperidol, facilitated BDNF secretion”, the “BDNF secretion from CCF-STTG1 cells” value (CCF-STTG1 cells) is listed as “but not haloperidol, facilitated BDNF secretion” and the “protection against ischemic stroke” value (ischemic stroke) is listed as “protected rats against an ischemic stroke”.
